Experimental data: patent publication US10166218B2, “3-(1H-indol-2-yl)-1H-pyrazolo[3,4-C]pyridines and therapeutic uses thereof” (Samumed, LLC, priority 2015, dated 2019)

Columns and labels:
Type in all cases: cell-based
[1] = test system: primary human fibroblasts derived from IPF patients (LL29 cells) treated with TGF-β1; α-smooth muscle actin (αSMA); test: Inhibition of the fibrotic process: αSMA staining in TGF-β1 treated primary human fibroblasts from IPF patients (LL29 cells); details: Fibroblast, 96 h, TGF-β1 20 ng/mL, 4 days; for EC50: % cells positive for αSMA
Outline: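 EC50 values come from non-linear fits of the αSMA-positive percentage among SYTOX-excluded live cells, normalized to TGF-β1 plus DMSO controls, or appear as % inhibition at 10 μM when above 10 μM. Fibrosis was induced in IPF-derived LL29 fibroblasts by 20 ng/mL TGF-β1 over 4 days, with 1:2 compound dilutions from 10 μM.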

SW480 colon cancer cells = test: Cell viability assay (CellTiter-Blue) in SW480 colon cancer cells; details: Homo sapiens, 96 h, four days; for EC50: CellTiter-Blue; for inhibition at 10 µM: read-out: percent inhibition at 10 μM (given for EC50 of >10 μM)
Outline: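 Resazurin reduction (Ex 560/Em 590 nm, ~3 h reagent incubation) served as the viability read-out after SW480 cells were treated for four days at 37 °C. Doses ran from 10 μM down to 0.0045 μM in eight 1:3 steps. Curves fitted non-linearly for EC50, else % inhibition at 10 μM reported.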

[2] = test system: Wnt activity (Sp5-Luc reporter, TCF/LEF binding sites) in SW480 colon carcinoma cells; test: Screening assay for Wnt activity: Sp5-Luc reporter gene assay in stably transduced SW480 cells; details: Homo sapiens; for EC50: overnight incubation; for inhibition at 10 µM: read-out: percent inhibition at 10 μM (given for EC50 of >10 μM)
Outline: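 Luminescence read-out (BrightGlo) from stable Sp5-Luc SW480 cells, normalized to DMSO-only wells. Cells were treated overnight at 37° C in 1% FBS medium across a 1:3, 10-point series starting at 10 μM. EC50 from variable-slope four-parameter regression; percent inhibition at 10 μM given where EC50 >10 μM.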

| EC50 (SW480 colon cancer cells) | EC50 [2] | Compound | EC50 [1] | inhibition at 10 µM [2] | inhibition at 10 µM (SW480 colon cancer cells) | inhibition at 10 µM ([1]; αSMA, 10 μM, read-out: percent inhibition at 10 μM (given for EC50 of >10 μM)) |
| --- | --- | --- | --- | --- | --- | --- |
| 6.84 µM | 590 nM | Cc1ccncc1-c1cc2c(-c3cc4c(-c5cccc(F)c5)cccc4[nH]3)n[nH]c2cn1 [Compound 5, 3-(4-(3-Fluorophenyl)-1H-indol-2-yl)-5-(4-methylpyridin-3-yl)-1H-pyrazolo [3,4-c]pyridine] | 605 nM | – | – | – |
| 5.42 µM | > 10000 nM | O=C(Nc1cncc(-c2cc3c(-c4cc5c(-c6cccc(F)c6)cccc5[nH]4)n[nH]c3cn2)c1)c1ccccc1 [Compound 11, N-(5-(3-(4-(3-Fluorophenyl)-1H-indol-2-yl)-1H-pyrazolo[3,4-c]pyridin-5-yl)pyridin-3-yl)benzamide] | 873 nM | 50.2% | – | – |
| > 10 µM | 1510 nM | O=C(Nc1cncc(-c2cc3c(-c4cc5c(-c6cccc(F)c6)cccc5[nH]4)n[nH]c3cn2)c1)C1CCC1 [Compound 21, N-(5-(3-(4-(3-Fluorophenyl)-1H-indol-2-yl)-1H-pyrazolo[3,4-c]pyridin-5-yl)pyridin-3-yl)cyclobutanecarboxamide] | 1700 nM | – | 11.5% | – |
| > 10 µM | 1540 nM | CC(C)CC(=O)Nc1cncc(-c2cc3c(-c4cc5c(-c6ccc(F)cc6)cccc5[nH]4)n[nH]c3cn2)c1 [Compound 30, N-(5-(3-(4-(4-Fluorophenyl)-1H-indol-2-yl)-1H-pyrazolo[3,4-c]pyridin-5-yl)pyridin-3-yl)-3-methylbutanamide] | 2280 nM | – | 28.3% | – |
| 0.805 µM | 382 nM | CCNCc1cncc(-c2cc3c(-c4cc5c(-c6ccc(F)cc6)cccc5[nH]4)n[nH]c3cn2)c1 [Compound 34, N-((5-(3-(4-(4-Fluorophenyl)-1H-indol-2-yl)-1H-pyrazolo[3,4-c]pyridin-5-yl)pyridin-3-yl)methyl)ethanamine] | 29 nM | – | – | – |
| 4.32 µM | 4310 nM | O=C(Cc1ccccc1)Nc1cncc(-c2cc3c(-c4cc5c(-c6ccc(F)cc6)cccc5[nH]4)n[nH]c3cn2)c1 [Compound 38, N-(5-(3-(4-(4-Fluorophenyl)-1H-indol-2-yl)-1H-pyrazolo[3,4-c]pyridin-5-yl)pyridin-3-yl)-2-phenylacetamide] | 659 nM | – | – | – |
| 1.08 µM | 1840 nM | Fc1ccc(-c2cccc3[nH]c(-c4n[nH]c5cnc(-c6cncc(CN7CCCC7)c6)cc45)cc23)cc1 [Compound 42, 3-(4-(4-Fluorophenyl)-1H-indol-2-yl)-5-(5-(pyrrolidin-1-ylmethyl)pyridin-3-yl)-1H-pyrazolo[3,4-c]pyridine] | 78 nM | – | – | – |
| 9.62 µM | > 10000 nM | O=C(Nc1cncc(-c2cc3c(-c4cc5c(-c6ccc(F)cc6)cccc5[nH]4)n[nH]c3cn2)c1)C1CCCCC1 [Compound 51, N-(5-(3-(4-(4-Fluorophenyl)-1H-indol-2-yl)-1H-pyrazolo[3,4-c]pyridin-5-yl)pyridin-3-yl)cyclohexanecarboxamide] | 809 nM | 32.6% | – | – |
| > 10 µM | 4140 nM | Fc1ccc(-c2cccc3[nH]c(-c4n[nH]c5cnc(-c6cncnc6)cc45)cc23)cc1 [Compound 55, 3-(4-(4-Fluorophenyl)-1H-indol-2-yl)-5-(pyrimidin-5-yl)-1H-pyrazolo[3,4-c]pyridine] | 2660 nM | – | 13.6% | – |
| 1.3 µM | 296 nM | Nc1cncc(-c2cc3c(-c4cc5c(-c6ccccc6F)cccc5[nH]4)n[nH]c3cn2)c1 [Compound 59, 5-(3-(4-(2-Fluorophenyl)-1H-indol-2-yl)-1H-pyrazolo[3,4-c]pyridin-5-yl) pyridin-3-amine] | 144 nM | – | – | – |
| 5.05 µM | > 10000 nM | CC(C)C(=O)Nc1cncc(-c2cc3c(-c4cc5c(-c6ccccc6F)cccc5[nH]4)n[nH]c3cn2)c1 [Compound 65, N-(5-(3-(4-(2-Fluorophenyl)-1H-indol-2-yl)-1H-pyrazolo[3,4-c]pyridin-5-yl)pyridin-3-yl)isobutyramide] | 1110 nM | 35.8% | – | – |
| 1.66 µM | 2090 nM | Fc1ccccc1-c1cccc2[nH]c(-c3n[nH]c4cnc(-c5cncc(CN6CCCCC6)c5)cc34)cc12 [Compound 71, 3-(4-(2-Fluorophenyl)-1H-indol-2-yl)-5-(5-(piperidin-1-ylmethyl)pyridin-3-yl)-1H-pyrazolo[3,4-c]pyridine] | 157 nM | – | – | – |
| > 10 µM | > 10000 nM | CCCCC(=O)Nc1cncc(-c2cc3c(-c4cc5c(-c6ccccc6F)cccc5[nH]4)n[nH]c3cn2)c1 [Compound 75, N-(5-(3-(4-(2-Fluorophenyl)-1H-indol-2-yl)-1H-pyrazolo[3,4-c]pyridin-5-yl)pyridin-3-yl)pentanamide] | 2030 nM | 11.1% | 10.7% | – |
| 6.55 µM | 940 nM | O=C(Nc1cncc(-c2cc3c(-c4cc5c(-c6ccccc6F)cccc5[nH]4)n[nH]c3cn2)c1)C1CC1 [Compound 76, N-(5-(3-(4-(2-Fluorophenyl)-1H-indol-2-yl)-1H-pyrazolo[3,4-c]pyridin-5-yl)pyridin-3-yl)cyclopropanecarboxamide] | 307 nM | – | – | – |
| 1.16 µM | 305 nM | CCC(=O)Nc1cncc(-c2cc3c(-c4cc5c(-c6cccnc6)cccc5[nH]4)n[nH]c3cn2)c1 [Compound 85, N-(5-(3-(4-(Pyridin-3-yl)-1H-indol-2-yl)-1H-pyrazolo[3,4-c]pyridin-5-yl)pyridin-3-yl)propionamide] | 553 nM | – | – | – |
| 1.09 µM | 260 nM | c1cncc(-c2cc3c(-c4cc5c(-c6cccnc6)cccc5[nH]4)n[nH]c3cn2)c1 [Compound 88, 5-(Pyridin-3-yl)-3-(4-(pyridin-3-yl)-1H-indol-2-yl)-1H-pyrazolo[3,4-c]pyridine] | 305 nM | – | – | – |
| 0.305 µM | 275 nM | CC(C)C(=O)Nc1cncc(-c2cc3c(-c4cc5c(-c6cccnc6)cccc5[nH]4)n[nH]c3cn2)c1 [Compound 93, N-(5-(3-(4-(Pyridin-3-yl)-1H-indol-2-yl)-1H-pyrazolo[3,4-c]pyridin-5-yl)pyridin-3-yl)isobutyramide] | 298 nM | – | – | – |
| 1.4 µM | 400 nM | O=C(Nc1cncc(-c2cc3c(-c4cc5c(-c6cccnc6)cccc5[nH]4)n[nH]c3cn2)c1)c1ccccc1 [Compound 95, N-(5-(3-(4-(Pyridin-3-yl)-1H-indol-2-yl)-1H-pyrazolo[3,4-c]pyridin-5-yl)pyridin-3-yl)benzamide] | 166 nM | – | – | – |
| 7.22 µM | 1200 nM | c1cncc(-c2cccc3[nH]c(-c4n[nH]c5cnc(-c6cncc(CN7CCCC7)c6)cc45)cc23)c1 [Compound 98, 3-(4-(Pyridin-3-yl)-1H-indol-2-yl)-5-(5-(pyrrolidin-1-ylmethyl)pyridin-3-yl)-1H-pyrazolo[3,4-c]pyridine] | 1610 nM | – | – | – |
| 1.47 µM | 336 nM | O=C(Nc1cncc(-c2cc3c(-c4cc5c(-c6cccnc6)cccc5[nH]4)n[nH]c3cn2)c1)C1CC1 [Compound 104, N-(5-(3-(4-(Pyridin-3-yl)-1H-indol-2-yl)-1H-pyrazolo[3,4-c]pyridin-5-yl)pyridin-3-yl)cyclopropanecarboxamide] | 189 nM | – | – | – |
| > 10 µM | > 10000 nM | Cc1ccncc1-c1cc2c(-c3cc4c(-c5ccncc5)cccc4[nH]3)n[nH]c2cn1 [Compound 117, 5-(4-Methylpyridin-3-yl)-3-(4-(pyridin-4-yl)-1H-indol-2-yl)-1H-pyrazolo [3,4-c]pyridine] | 1040 nM | 43.1% | 16.6% | – |
| > 10 µM | 194 nM | CC(C)(C)C(=O)Nc1cncc(-c2cc3c(-c4cc5c(-c6ccncc6)cccc5[nH]4)n[nH]c3cn2)c1 [Compound 120, N-(5-(3-(4-(Pyridin-4-yl)-1H-indol-2-yl)-1H-pyrazolo[3,4-c]pyridin-5-yl)pyridin-3-yl)pivalamide] | 1030 nM | – | 32.2% | – |
| > 10 µM | > 10000 nM | CC(C)(C)CC(=O)Nc1cncc(-c2cc3c(-c4cc5c(-c6ccncc6)cccc5[nH]4)n[nH]c3cn2)c1 [Compound 128, 3,3-Dimethyl-N-(5-(3-(4-(pyridin-4-yl)-1H-indol-2-yl)-1H-pyrazolo[3,4-c]pyridin-5-yl)pyridin-3-yl)butanamide] | > 10000 nM | 46.5% | 14% | 23.7% |
| > 10 µM | 401 nM | O=C(Nc1cncc(-c2cc3c(-c4cc5c(-c6ccncc6)cccc5[nH]4)n[nH]c3cn2)c1)C1CCC1 [Compound 133, N-(5-(3-(4-(Pyridin-4-yl)-1H-indol-2-yl)-1H-pyrazolo[3,4-c]pyridin-5-yl)pyridin-3-yl)cyclobutanecarboxamide] | 391 nM | – | 45.9% | – |
